Assay results: PubChem BioAssay (NCI)
Where “and” joins values, the source holds several entries; their conditions need not be identical. Equal entries are not always repeated.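 Results reflect a 48-hour exposure of cells in 96-well plates to compound at five concentrations. Here, GI50 denotes the concentration required for 50% inhibition of growth. TGI is the concentration that stops growth completely.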

Tests used:
Assay in all cases: NCI tumour cell line growth inhibition, 48 h
A549 NSCLC = tested on: A549 NSCLC
CCRF-CEM leukemia = tested on: CCRF-CEM leukemia
HOP-62 NSCLC = tested on: HOP-62 NSCLC
HT29 colon = tested on: HT29 colon
K-562 leukemia = tested on: K-562 leukemia
SK-MEL-2 melanoma = tested on: SK-MEL-2 melanoma
SK-MEL-5 melanoma = tested on: SK-MEL-5 melanoma
SN12C renal = tested on: SN12C renal
SNB-19 CNS = tested on: SNB-19 CNS
U251 CNS = tested on: U251 CNS

Structure (SMILES) | TGI (A549 NSCLC) | TGI (CCRF-CEM leukemia) | TGI (HOP-62 NSCLC) | TGI (HT29 colon) | TGI (K-562 leukemia) | TGI (SK-MEL-2 melanoma) | TGI (SK-MEL-5 melanoma) | TGI (SN12C renal) | TGI (SNB-19 CNS) | TGI (U251 CNS) | GI50 (A549 NSCLC) | GI50 (CCRF-CEM leukemia) | GI50 (HOP-62 NSCLC) | GI50 (HT29 colon) | GI50 (K-562 leukemia) | GI50 (SK-MEL-2 melanoma) | GI50 (SK-MEL-5 melanoma) | GI50 (SN12C renal) | GI50 (SNB-19 CNS) | GI50 (U251 CNS)
Cc1cc(N(CCC#N)CCC#N)ccc1/C=C(\NC(=O)/C=C/c1ccccc1)C(=O)NN | > 100 µM | > 100 µM | > 90.3 µM | > 100 µM | > 100 µM | > 100 µM | > 100 µM | > 100 µM | > 55.7 µM | > 78 µM |  |  |  |  |  |  |  |  |  | 
C=CC(OCC)(OCC)OCC | > 100 µM | > 100 µM | > 100 µM | > 100 µM | > 100 µM | > 100 µM | > 100 µM | > 100 µM | > 100 µM | > 100 µM |  |  |  |  |  |  |  |  |  | 
Oc1ccccc1-c1nn(CNc2ccccc2Cl)c(=S)o1 | > 100 µM | 55.4 µM | > 100 µM | 63.8 µM | > 100 µM | > 100 µM | > 100 µM | > 100 µM | > 100 µM | > 100 µM | > 100 µM | 20.1 µM | > 100 µM | 21 µM | > 100 µM | > 100 µM | > 100 µM | 78.2 µM | > 100 µM | 31.4 µM
CSC(=S)N/N=C/c1nccc2ccccc12 | 9.87 µM | 8.8 µM | 10.1 µM | > 67.5 µM | 14.3 µM | 5.89 µM | 2.66 µM | 12.7 µM | > 27.1 µM | 6.99 µM |  |  |  |  |  |  |  |  |  | 
Cc1c2ccccc2cc2ccc3oc([N+](=O)[O-])cc3c12 | > 100 µM | > 100 µM | > 100 µM | > 100 µM | > 100 µM | > 100 µM | > 100 µM | > 100 µM | > 100 µM | > 100 µM |  |  |  |  |  |  |  |  |  | 
O=C(Nc1ccc(Cl)c(Cl)c1)NS(=O)(=O)c1cnccc1Oc1ccc(F)cc1 | 52 µM | 7.55 µM | 51.2 µM | > 100 µM | > 100 µM | > 100 µM | 13.5 µM | 15.4 µM | > 100 µM | 37.2 µM | 9.92 µM | 2.47 µM | 6.14 µM | 3.63 µM | 3.27 µM | 4.71 µM | 3.63 µM | 3.38 µM | 4.29 µM | 3.42 µM
O=C(O)c1ccccc1/C=N/N=C1c2ccccc2-c2ccccc21 | > 100 µM | 78.7 µM | > 100 µM | > 100 µM | > 100 µM | > 100 µM | > 100 µM | > 100 µM | > 100 µM | 55.6 µM |  |  |  |  |  |  |  |  |  | 
O=S(=O)(CCCl)c1ccc(Cl)cc1 | 45.6 µM | 20.9 µM | 30.6 µM | 13.8 µM | > 100 µM | 5.55 µM | 20.4 µM | 16.9 µM | 41.1 µM | 27.5 µM | 13 µM | 2.95 µM | 15.7 µM | 3.23 µM | 3.98 µM | 2.17 µM | 6.27 µM | 4.46 µM | 13.2 µM | 10.1 µM
Cc1ccc(NC(=O)c2cc(S(=O)(=O)N3C(=O)NC(=O)NS3(=O)=O)c(S)cc2Cl)cc1 | > 100 µM | 40.3 µM | > 100 µM | > 100 µM | 68.7 µM | 85.3 µM | 32 µM | > 100 µM | > 100 µM | > 100 µM | 35.1 µM | 15.9 µM | 33.9 µM | 42.8 µM | 22.2 µM | 28.3 µM | 15.4 µM | 31.2 µM | 69.5 µM | 27.1 µM
c1ccc(N2N=C(c3ccco3)CC2c2ccco2)cc1 (centres undefined) | > 100 µM | > 100 µM | > 100 µM | > 100 µM | > 100 µM | > 100 µM | > 100 µM | > 100 µM | > 100 µM | > 100 µM |  |  |  |  |  |  |  |  |  | 
O=C(/C=C/c1ccccc1)c1ccc(NCc2nc3ccccc3[nH]2)cc1 | 17.4 µM | 8.38 µM | 23.3 µM | 7.73 µM | > 26.1 µM | 25.5 µM | 14.2 µM | 15.4 µM | 15.9 µM | 5.17 µM |  |  |  |  |  |  |  |  |  | 
CCC1=CC2CN(C1)Cc1c([nH]c3ccccc13)[C@@](C(=O)OC)(c1cc3c(cc1OC)N(C)[C@H]1[C@@](O)(C(=O)OC)[C@H](OC(C)=O)[C@]4(CC)C=CCN5CC[C@]31[C@@H]54)C2 (some centres undefined) | 50 µM and > 100 µM | 20.2 µM | 43.8 µM | 6 µM and 20.9 µM | 16.6 µM and 15.2 µM | 14.9 µM and > 100 µM | 0.501 µM and 0.208 µM | 50 µM and > 100 µM | > 100 µM | 6.71 µM and 21 µM | 0.0114 µM and 0.0208 µM | 0.00879 µM | 0.0135 µM | < 0.005 µM | < 0.005 µM |  | 0.00873 µM | 0.0118 µM and 0.0186 µM | 0.0238 µM | < 0.005 µM
O=C(O)[C@@H](Cc1ccc2ccccc2c1)NC(=O)n1c2ccccc2c2ccccc21 | > 100 µM | 18 µM | 15.3 µM | 8.33 µM | > 100 µM | 43.3 µM | 7.27 µM | 17.7 µM | 17 µM | 21.2 µM | 4.36 µM | 0.77 µM | 3.21 µM | 3.08 µM | 1.41 µM | 4.19 µM | 2.55 µM | 3.94 µM | 3.57 µM | 2.89 µM
CCN(C(=O)/C=C/c1ccco1)c1ccccc1 | > 100 µM | > 100 µM | > 100 µM | > 100 µM | > 100 µM | > 100 µM | > 100 µM | > 100 µM | > 100 µM | > 100 µM |  |  |  |  |  |  |  |  |  | 
C[C@H]1CCCC(O)C(O)[C@@H]2C[C@H](O[Si](C)(C)C(C)(C)C)C[C@H]2[C@H](O[Si](C)(C)C(C)(C)C)C(O)C(O)C(=O)O1 (some centres undefined) | > 100 µM | > 100 µM | 27.6 µM | > 100 µM | > 100 µM | > 100 µM | > 100 µM | > 100 µM | 46.7 µM | 30.9 µM | 31.5 µM | 28 µM | 11 µM | 62.7 µM | 69.4 µM | 34.8 µM | 45.4 µM | 34.6 µM | 15.9 µM | 12.7 µM
C=C1C(=O)O[C@H]2[C@H]1CC/C(C=Nc1c(N)cc(C(F)(F)F)cc1Br)=C\CC[C@@]1(C)O[C@@H]21 | 5.11 µM | 11.2 µM | 4.82 µM | 3.13 µM | 6.87 µM | 3.47 µM | 2.64 µM | 3.51 µM | 13.2 µM | 3.17 µM | 2.03 µM | 0.33 µM | 2.17 µM | 1.63 µM | 1.99 µM | 1.63 µM | 1.35 µM | 1.5 µM | 3.46 µM | 1.69 µM
COC(=O)C1(O)CC(=O)CCC1c1ccc(OC)cc1 (centres undefined) | > 100 µM | > 100 µM | > 100 µM | > 100 µM | > 100 µM | > 100 µM | > 100 µM | > 100 µM | > 100 µM | > 100 µM |  |  |  |  |  |  |  |  |  | 
COc1cc(NCCCCCCCNC(C)C)c2nccc(C)c2c1 | 38.3 µM | 33 µM | 27.6 µM | 16.4 µM | 14.6 µM | 38.3 µM | 24.6 µM | 25.7 µM | 30 µM | 24.2 µM | 18.8 µM | 12.1 µM | 13.8 µM | 4.29 µM | 3.46 µM | 20 µM | 11.9 µM | 12.2 µM | 16 µM | 11 µM
O=c1oc2ccc(I)cc2c(=O)n1-c1ccc(Cl)cc1F | > 100 µM | 46.6 µM | 7.42 µM | 18.7 µM | > 100 µM | 3.43 µM | 2.19 µM | 8.77 µM | 58.7 µM | 24.5 µM | 2.87 µM | 2.97 µM | 2 µM | 3.4 µM | 0.658 µM | 0.582 µM | 0.751 µM | 0.8 µM | 0.64 µM | 1.51 µM
CC(=O)c1ccc(O)c(CN(C2CCCCC2)C2CCCCC2)c1O | > 100 µM | 1.88 µM | > 100 µM | > 100 µM | > 100 µM | > 100 µM | > 100 µM | > 100 µM | > 100 µM | > 100 µM |  |  |  |  |  |  |  |  |  | 
